This passage reports IC50 and ring closure, isolated yield results from publication PMC12155888, “Design, Synthesis, and Antitumor Biological Evaluation of Galaxamide and Its Analogs” (Molecules, 2025).

Values joined by “and” are separate entries in the source; they are usually repeats but may differ in a detail not shown here. Equal values may be shown once. Read-outs that look alike come from different tables or passages of the source. Where a SMILES comes first, the peptide text is derived from it. [ ]: non-standard residue; d: D form. dChg = N[C@@H](C(=O)O)C1CCCCC1; dPhg = N[C@@H](C(=O)O)c1ccccc1; NMeL = CN[C@@H](CC(C)C)C(=O)O; dNMeL = CN[C@H](CC(C)C)C(=O)O A value given as a limit tells only on which side of the number the result lay.

Series [1] has as its system K562. The series is classed as cell-based, human. As to the method:
To examine the anticancer activities of galaxamide and its analogs, two different human cancer cell lines, human non-small-cell lung cancer cells (A549) and human chronic myelogenous leukemia (K562), and one normal human cell line, human immortal embryonic kidney cells (293T), were selected for the in vitro cell models. […] The synthetic galaxamide (Gala01) was also tested as the standard. […] A549, K562, and 293T cells were purchased from the Cell Resource Center of the Institute of Basic Medicine, Chinese Academy of Medical Sciences. Both A549 cells and K562 cells were cultured in RPMI (full name: Roswell Park Memorial Institute) 1640 medium containing 10% FBS (full name: fetal bovine serum, product number: C04001-500, Vivacell, Shanghai, China) and 1% p/s (full name: penicillin-streptomycin, product number: 15140122, Gbico, Waltham, MA, USA) for culture. The 293T cells were all cultured in DMEM (full name: Dulbecco's Modified Eagle Medium; cat. no.: C3113-0500, Vivacell, ShanghaiChina; containing 10% FBS and 1% p/s) for cultivation. […] Multiple types of cells were seeded into 96-well plates and treated with different concentrations of […]26 for 48 h after they returned to normal. Then, the relative activity of the cells was detected according to the instructions of the CCK-8 kit (item number: MA0218, Meilunbio, Dalian, China) and analyzed and calculated using GraphPad Prism 8.0.1 software.

For series [2], the system named is A549. In kind it is cell-based, human. The source says:
(§1) Since the antitumor activity of natural galaxamide is good, we are interested in the antitumor potential of the obtained new analogs. To examine the anticancer activities of galaxamide and its analogs, two different human cancer cell lines, human non-small-cell lung cancer cells (A549) and human chronic myelogenous leukemia (K562), and one normal human cell line, human immortal embryonic kidney cells (293T), were selected for the in vitro cell models. […] The synthetic galaxamide (Gala01) was also tested as the standard. […] It was also found […] the best selectivity and highest safety and is thus worthy of further development for anticancer drugs for K562. A549, K562, and 293T cells were purchased from the Cell Resource Center of the Institute of Basic Medicine, Chinese Academy of Medical Sciences. Both A549 cells and K562 cells were cultured in RPMI (full name: Roswell Park Memorial Institute) 1640 medium containing 10% FBS (full name: fetal bovine serum, product number: C04001-500, Vivacell, Shanghai, China) and 1% p/s (full name: penicillin-streptomycin, product number: 15140122, Gbico, Waltham, MA, USA) for culture. The 293T cells were all cultured in DMEM (full name: Dulbecco's Modified Eagle Medium; cat. no.: C3113-0500, Vivacell, ShanghaiChina; containing 10% FBS and 1% p/s) for cultivation. […] Multiple types of cells were seeded into 96-well plates and treated with different concentrations of […]26 for 48 h after they returned to normal. Then, the relative activity of the cells was detected according to the instructions of the CCK-8 kit (item number: MA0218, Meilunbio, Dalian, China) and analyzed and calculated using GraphPad Prism 8.0.1 software.

The subject of series [3] is 293T. In kind it is cell-based, human. Conditions: 48 h.
Text: as §1

The conditions of series [4]: amide bond; 15-membered ring; PyBOP/DMAP; MeCN; 4.3 mM.
[5] abbreviates: human chronic myelogenous leukemia K562, 48 h, CCK-8, unit given in the text, not in Table 2, read-out: IC50 K562.
The mark [6] stands for this setting: human non-small-cell lung cancer cells A549, 48 h, CCK-8, unit given in the text, not in Table 2, read-out: IC50 A549.

What is called IC50 is the concentration that inhibits the measured activity by half. Turning to `CC(C)C[C@@H]1NC(=O)[C@H](CC(C)C)N(C)C(=O)[C@H](CC(C)C)NC(=O)[C@H](CC(C)C)N(C)C(=O)[C@@H](CC(C)C)NC1=O` [Gala02, Cyclo(Me-L-Leu-L-Leu-D-Leu-Me-L-Leu-L-Leu)] (cyclo(L[NMeL]L[dL][NMeL])), the values for the half-maximal inhibitory concentration (IC50) in series [1] (setting [5]) and in series [2] (setting [6]) were 8.6 µM and greater than 20 µM, respectively.

Consider `CC(C)C[C@@H]1NC(=O)[C@@H](CC(C)C)N(C)C(=O)[C@H](CC(C)C)NC(=O)[C@@H](CC(C)C)N(C)C(=O)[C@H](CC(C)C)NC1=O` [Gala03, Cyclo(Me-D-Leu-L-Leu-L-Leu-Me-D-Leu-L-Leu)] (cyclo(LL[dNMeL]L[dNMeL])), for which the IC50 in series [1] (setting [5]) was greater than 80 µM; in series [2] (setting [6]), greater than 20 µM.

Consider `CC(C)C[C@@H]1NC(=O)[C@@H](CC(C)C)NC(=O)[C@H](CC(C)C)N(C)C(=O)[C@@H](CC(C)C)NC(=O)[C@H](CC(C)C)N(C)C1=O` [Gala05, Cyclo(Me-L-Leu-D-Leu-L-Leu-Me-L-Leu-D-Leu)] (cyclo(L[NMeL][dL][NMeL][dL])), for which the IC50 in series [1] (setting [5]) was 10.2 µM; in series [2] (setting [6]), greater than 20 µM.

With `CC(C)C[C@H]1NC(=O)[C@H](CC(C)C)N(C)C(=O)[C@@H](CC(C)C)NC(=O)[C@H](CC(C)C)N(C)C(=O)[C@@H](CC(C)C)NC1=O` [Gala06, Cyclo(Me-L-Leu-D-Leu-D-Leu-Me-L-Leu-D-Leu)] (cyclo([NMeL][dL][NMeL][dL][dL])), the IC50 in series [1] (setting [5]) was 28.8 µM; in series [2] (setting [6]) it was greater than 20 µM.

On to `CC(C)C[C@@H]1NC(=O)[C@@H](CC(C)C)NC(=O)[C@@H](CC(C)C)N(C)C(=O)[C@@H](CC(C)C)NC(=O)[C@@H](CC(C)C)N(C)C1=O` [Gala07, Cyclo(Me-D-Leu-D-Leu-L-Leu-Me-D-Leu-D-Leu)] (cyclo(L[dNMeL][dL][dNMeL][dL])), for which the values for the IC50 in series [1] (setting [5]) and in series [2] (setting [6]) were greater than 80 µM and greater than 20 µM, respectively.

Take `CC(C)C[C@@H]1NC(=O)[C@H](CC(C)C)N(C)C(=O)[C@H](CC(C)C)NC(=O)[C@H](CC(C)C)N(C)C(=O)[C@@H](Cc2ccccc2)NC1=O` [Gala09, Cyclo(Me-L-Leu-L-Leu-D-Phe-Me-L-Leu-L-Leu)]: the concentration for half-maximal inhibition (IC50) in series [1] (48 h) was 14.9 µM; in series [2] (48 h), greater than 20 µM.

Take `CC(C)C[C@@H]1NC(=O)[C@H](CC(C)C)N(C)C(=O)[C@H](CC(C)C)NC(=O)[C@H](CC(C)C)N(C)C(=O)CNC1=O` [Gala10, Cyclo(Me-L-Leu-L-Leu-Gly-Me-L-Leu-L-Leu)] (cyclo([NMeL]LG[NMeL]L)): the values for the IC50 in series [1] (48 h) and in series [2] (48 h) were 27.2 µM and greater than 20 µM, respectively.

Regarding `CC(C)C[C@@H]1NC(=O)[C@H](CC(C)C)N(C)C(=O)[C@H](CC(C)C)NC(=O)[C@H](CC(C)C)N(C)C(=O)[C@@H](C)NC1=O` [Gala11, Cyclo(Me-L-Leu-L-Leu-D-Ala-Me-L-Leu-L-Leu)] (cyclo([NMeL]L[dA][NMeL]L)), the 50% inhibitory concentration (IC50) in series [1] (48 h) came out at 33.8 µM; in series [3], 13.3 µM.

In the case of `COc1ccc(C[C@H]2NC(=O)[C@H](CC(C)C)NC(=O)[C@H](CC(C)C)N(C)C(=O)[C@H](CC(C)C)NC(=O)[C@H](CC(C)C)N(C)C2=O)cc1` [Gala13, Cyclo(Me-L-Leu-L-Leu-O-Tyr-Me-L-Leu-L-Leu)] (cyclo(L[NMeL]L[dY](Me)[NMeL])), the concentration for half-maximal inhibition (IC50) in series [1] (48 h) was greater than 80 µM; in series [2] (48 h), greater than 20 µM.

For the compound `CC(C)C[C@@H]1NC(=O)[C@H](CC(C)C)N(C)C(=O)[C@H](CC(C)C)NC(=O)[C@H](CC(C)C)N(C)C(=O)[C@@H](Cc2cccc(F)c2)NC1=O` [Gala15, Cyclo(Me-L-Leu-L-Leu-3-Flu-D-Phe-Me-L-Leu-L-Leu)], the 50% inhibitory concentration (IC50) in series [1] (48 h) is 13 µM; in series [2] (48 h) it was greater than 20 µM.

`Cc1ccccc1C[C@H]1NC(=O)[C@H](CC(C)C)NC(=O)[C@H](CC(C)C)N(C)C(=O)[C@H](CC(C)C)NC(=O)[C@H](CC(C)C)N(C)C1=O` [Gala16, Cyclo(Me-L-Leu-L-Leu-2-Me-D-Phe-Me-L-Leu-L-Leu)]: the IC50 is greater than 80 µM in series [1] (48 h) and greater than 20 µM in series [2] (48 h).

Regarding `CC(C)C[C@@H]1NC(=O)[C@H](CC(C)C)N(C)C(=O)[C@H](CC(C)C)NC(=O)[C@H](CC(C)C)N(C)C(=O)[C@@H](Cc2ccc(Cl)cc2)NC1=O` [Gala17, Cyclo(Me-L-Leu-L-Leu-4-Chl-D-Phe-Me-L-Leu-L-Leu)], the IC50 in series [1] (48 h) was 77.7 µM; in series [2] (48 h) it was greater than 20 µM.

`CC(C)C[C@@H]1NC(=O)[C@H](CC(C)C)N(C)C(=O)[C@H](CC(C)C)NC(=O)[C@H](CC(C)C)N(C)C(=O)[C@@H](C2CCCCC2)NC1=O` [Gala19, Cyclo(Me-L-Leu-L-Leu-D-cyclohexyl-Gly-Me-L-Leu-L-Leu)] (cyclo(L[NMeL]L[dChg][NMeL])): the results for the IC50 in series [1] (48 h) and in series [2] (48 h) were 75.2 µM and greater than 20 µM, respectively.

Consider `CC(C)C[C@@H]1NC(=O)[C@H](CC(C)C)N(C)C(=O)[C@H](CC(C)C)NC(=O)[C@H](CC(C)C)N(C)C(=O)[C@@H](c2ccccc2)NC1=O` [Gala20, Cyclo(Me-L-Leu-L-Leu-D-phenyl-Gly-Me-L-Leu-L-Leu)] (cyclo(L[NMeL]L[dPhg][NMeL])), for which the IC50 in series [1] (48 h) was greater than 80 µM; in series [2] (48 h), greater than 20 µM.

In the case of `CC(C)C[C@@H]1NC(=O)[C@H](CC(C)C)N(C)C(=O)[C@H](CC(C)C)NC(=O)[C@H](CC(C)C)N(C)C(=O)[C@@H](C(C)C)NC1=O` [Gala21, Cyclo(Me-L-Leu-L-Leu-D-Val-Me-L-Leu-L-Leu)] (cyclo([NMeL]L[dV][NMeL]L)), the 50% inhibitory concentration (IC50) is 49.3 µM in series [1] (48 h) and greater than 20 µM in series [2] (48 h).

With `Cc1cccc(C[C@H]2NC(=O)[C@H](CC(C)C)NC(=O)[C@H](CC(C)C)N(C)C(=O)[C@H](CC(C)C)NC(=O)[C@H](CC(C)C)N(C)C2=O)c1` [Gala23, Cyclo(Me-L-Leu-L-Leu-3-Me-D-Phe-Me-L-Leu-L-Leu)], the results for the IC50 in series [1] (48 h) and in series [2] (48 h) were 6.9 µM and greater than 20 µM, respectively.

“Cyclo(Me-L-Leu-L-Leu-3-Me-D-Phe-Me-L-Leu-L-Leu)”: the ring closure, isolated yield in series [4] is 53% and 50%.

With “Cyclo(Me-L-Leu-L-Leu-4-Bro-D-Phe-Me-L-Leu-L-Leu)”, in series [4], the ring closure, isolated yield turned out to be 55%.

In the case of “Cyclo(Me-L-Leu-L-Leu-4-Chl-D-Phe-Me-L-Leu-L-Leu)”, the ring closure, isolated yield in series [4] was determined as 55%.

As for “Cyclo(Me-L-Leu-L-Leu-D-Ala-Me-L-Leu-L-Leu)”, the ring closure, isolated yield in series [4] is 49%.

In series [4], “Cyclo(Me-L-Leu-L-Leu-D-Leu-Me-L-Leu-L-Leu)” gave a ring closure, isolated yield of 45%.

In series [4], “Cyclo(Me-L-Leu-L-Leu-D-Met-Me-L-Leu-L-Leu)” had a ring closure, isolated yield of 52%.

In series [4], “Cyclo(Me-L-Leu-L-Leu-D-Phe-Me-L-Leu-L-Leu)” displayed a ring closure, isolated yield of 51%.

Consider “Cyclo(Me-L-Leu-L-Leu-D-Pro-Me-L-Leu-L-Leu)”, for which the ring closure, isolated yield in series [4] is 51%.

For “Cyclo(Me-L-Leu-L-Leu-D-Val-Me-L-Leu-L-Leu)”, the ring closure, isolated yield in series [4] worked out at 50%.

Take “Cyclo(Me-L-Leu-L-Leu-D-cyclohexyl-Gly-Me-L-Leu-L-Leu)”: in series [4], the ring closure, isolated yield was found to be 51%.

As to “Cyclo(Me-L-Leu-L-Leu-D-phenyl-Gly-Me-L-Leu-L-Leu)”, the ring closure, isolated yield in series [4] was found to be 51%.

Regarding “Cyclo(Me-L-Leu-L-Leu-Gly-Me-L-Leu-L-Leu)”, in series [4], the ring closure, isolated yield turned out to be 51%.

For “Cyclo(Me-L-Leu-L-Leu-Methylester-D-Asp-Me-L-Leu-L-Leu)”, in series [4], the ring closure, isolated yield came out at 52%.

In series [4], “Cyclo(Me-L-Leu-L-Leu-O-Me-D-Ser-Me-L-Leu-L-Leu)” had a ring closure, isolated yield of 52%.

As to “Cyclo(Me-L-Leu-L-Leu-O-Tyr-Me-L-Leu-L-Leu)”, the ring closure, isolated yield in series [4] came to 52%.
